According to patent publication US12637468B2, “Substituted [1,2,4]triazolo[4,3-b]pyridazines as GABAA receptor modulators” (SHANGHAI SIMR BIOTECHNOLOGY CO., LTD., priority 2019, dated 2026):
In brackets after ≈: the same amount, converted by molar mass.

Assays:
[1] = Rat liver microsome stability (RLM) experiment; assay type: in vitro ADME; settings: rat liver microsomal stability
Experimental: Effect embodiment 3 Rat liver microsome stability (RLM) experiment
Rat liver microsomes (Xenotech, item No. R1000, lot No. 1310030), 100 mM potassium phosphate buffer solution (pH 7.4), 10 mM magnesium chloride.
Compound preparation: 5 μL of compound DMSO mother liquor (10 mM) was added to 495 μL of methanol to obtain an intermediate solution with a compound concentration of 100 μM. Then 50 μL of the intermediate solution was taken and dissolved in 450 μL of potassium phosphate buffer solution to obtain a test solution with a final concentration of 10 μM.
NADPH regeneration system (concentration of isocitrate dehydrogenase 1 unit/mL).
Liver microsomes (final concentration 0.5 mg protein/mL).
Reaction termination solution: cold acetonitrile containing 100 ng/mL Tolbutamide and 100 ng/mL Labetalol as an internal standard.
• (1) Preparation of buffer solution: • Buffer solution A: 1.0 L of 0.1 M potassium phosphate buffer solution containing 1.0 mM EDTA • Buffer solution B: 1.0 L of 0.1 M dipotassium phosphate buffer solution containing 1.0 mM EDTA • Buffer solution C: 0.1 M potassium phosphate buffer, 1.0 mM EDTA, pH 7.4, titrated with 700 mL of buffer solution B and buffer solution A, monitored by pH meter. • (2) Preparation of reference substance (ketanserin) and concentration of administration solution of the test substance:
[…]: […] 10 mM DMSO reference substance stock solution and test substance stock solution were added to 190 μL of ACN, respectively. 1.5 μM administration solution (containing 0.75 mg/mL liver microsomes): […] administration solution and 18.75 μL of 20 mg/mL liver microsomes were added to 479.75 μL of buffer C on a wet ice. • (3) NADPH was added to buffer solution C to obtain a NADPH stock solution (6 mM). • (4) 30 μL of 1.5 μM administration solution (containing 0.75 mg/mL of liver microsomes) was taken on the wet ice and added to the wells of the test plate at different time points (0-, 5-, 15-, 30-, 45-min), respectively. • (5) Firstly, 135 μL of ACN containing IS was added to the wells of a 0 min test plate, and then 15 μL of the NADPH stock solution (6 mM) was added. • (6) The test plate at other time points and the NADPH stock solution were pre-heated in a 37° C. water bath for 5 minutes. • (7) 15 μL of the NADPH stock solution (6 mM) was taken and added to a pre-incubated test plate, and the reaction was started and timed. • (8) At 5 min, 15 min, 30 min and 45 min, 135 μL of CAN containing IS was added to the corresponding test plate respectively, and the test was completed. • (9) Test plates were shaken with a shaker (IKA, MTS 2/4) for 10 min (600 rpm/min) and then centrifuged for 15 min (Thermo Multifuge×3R, 5594 g). • (10) 50 μL of supernatant from each well was added to a 96-well sample plate containing 50 μL of ultrapure water (Millipore, ZMQS50F01), and the samples were analyzed by LC/MS.

[2] = Thermodynamic solubility in phosphate buffer solution (TS in PBS); assay type: physicochemical; settings: aqueous buffer, thermodynamic from solid, 50 mM phosphate buffer solution pH 7.4, shaken at room temperature for 24 hours
Experimental: 50 mM phosphate buffer solution pH=7.4:0.39 g of NaH2PO4·2H2O, and 1.4025 g of Na2HPO4 were weighted and placed in an erlenmeyer flask, then 240 mL of water was added thereto. The solid was dissolved and mixed thoroughly, and the pH value was adjusted to 7.4 with 10M NaOH solution, and the resulting solution was transferred to a 250 mL volumetric flask, followed by dilution to scale with water.
(§1) Waters e2695 HPLC high performance liquid chromatography, Mettler XSE105 analytical balance.
(§2) Firstly, a 10 mM stock solution was prepared with DMSO, and was diluted with a diluent (ACN: PB buffer 50:50) into 1 μM-200 μM as a standard solution.
Thermodynamic solubility in phosphate buffer solution (TS in PBS). 1 mg of the sample was weighed, and 1.5 mL of 50 mM phosphate buffer solution (pH 7.4) was added thereto, then the mixture was shaken at room temperature for 24 hours to ensure that the sample was saturated, and filtered. The filtrate was detected with the high performance liquid chromatograph (UV). The compounds of the present disclosure and comparative compounds are tested by this method, and the results are shown in Table 3 below: […]

α5-GABAA receptor [3] = settings: cited from earlier work
α5-GABAA receptor [4] = molecular target: T1, α5-GABAA receptor (Homo sapiens, UniProt P18507+P31644); assay: Cell-level screening: whole cell patch clamp, inverse agonist efficacy on α5-GABAA receptor expressed in HEK293; assay type: cell-based; settings: drug 100 nM, GABA 0.05 μM, HEK293 expressing α5, β3 and γ2 subunits, clamped at −60 mV; read-out: Compound inverse agonist efficacy %
T1 construct: expressed in transfected cells; host or cells: HEK293, monoclonal stably transfected line
T1 sequence (P31644 32-462): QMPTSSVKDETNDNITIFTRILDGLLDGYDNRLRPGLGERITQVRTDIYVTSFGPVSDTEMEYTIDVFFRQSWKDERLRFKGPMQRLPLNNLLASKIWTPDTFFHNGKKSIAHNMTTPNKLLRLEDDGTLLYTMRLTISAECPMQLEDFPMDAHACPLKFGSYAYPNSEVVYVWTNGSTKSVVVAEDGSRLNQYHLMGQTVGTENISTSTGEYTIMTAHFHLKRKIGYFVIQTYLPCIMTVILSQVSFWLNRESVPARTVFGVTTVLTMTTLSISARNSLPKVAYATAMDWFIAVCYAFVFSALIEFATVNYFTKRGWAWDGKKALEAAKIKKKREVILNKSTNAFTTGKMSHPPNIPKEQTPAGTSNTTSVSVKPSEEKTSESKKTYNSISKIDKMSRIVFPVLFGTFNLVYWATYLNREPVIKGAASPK
T1 sequence (P28472 26-473 partner): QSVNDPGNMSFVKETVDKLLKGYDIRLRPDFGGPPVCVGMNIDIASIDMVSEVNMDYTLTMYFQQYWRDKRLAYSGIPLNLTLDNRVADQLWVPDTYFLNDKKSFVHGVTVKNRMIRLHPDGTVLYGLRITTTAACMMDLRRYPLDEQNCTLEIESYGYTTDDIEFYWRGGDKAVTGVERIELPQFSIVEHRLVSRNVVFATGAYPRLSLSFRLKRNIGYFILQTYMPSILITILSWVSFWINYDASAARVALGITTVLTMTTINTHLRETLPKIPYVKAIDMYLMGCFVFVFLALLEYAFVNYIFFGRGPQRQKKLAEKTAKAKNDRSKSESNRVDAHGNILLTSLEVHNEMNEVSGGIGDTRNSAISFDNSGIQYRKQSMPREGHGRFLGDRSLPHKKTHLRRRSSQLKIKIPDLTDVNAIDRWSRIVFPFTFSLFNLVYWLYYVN
T1 sequence (P18507 40-467 isoform P18507-1 limits assumed): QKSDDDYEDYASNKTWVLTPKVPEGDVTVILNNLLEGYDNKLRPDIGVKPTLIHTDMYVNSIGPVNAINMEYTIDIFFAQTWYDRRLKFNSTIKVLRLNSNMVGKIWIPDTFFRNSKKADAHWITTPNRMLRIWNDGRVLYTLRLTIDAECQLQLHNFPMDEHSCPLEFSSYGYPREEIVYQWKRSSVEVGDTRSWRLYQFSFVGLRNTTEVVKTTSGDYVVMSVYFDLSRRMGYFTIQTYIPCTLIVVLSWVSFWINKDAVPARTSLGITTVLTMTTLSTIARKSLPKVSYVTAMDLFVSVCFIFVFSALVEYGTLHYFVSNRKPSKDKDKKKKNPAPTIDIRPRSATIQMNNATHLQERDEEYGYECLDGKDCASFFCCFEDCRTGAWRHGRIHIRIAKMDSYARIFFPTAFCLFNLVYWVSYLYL
How it was run: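 Whole-cell patch clamp at −60 mV on HEK293 stably expressing α5β3γ2, pH 7.4 extracellular/CsCl internal solutions. Current evoked by 0.05 μM GABA, then compound in GABA solution; screening at 100 nM, dose-response 0.3–300 nM. Inverse agonist efficacy as % change of GABA current.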

[5] = Pharmacokinetic experiment on rats: brain entry ratio (brain tissue/plasma concentration ratio); assay type: in vivo; settings: rat, male SD rats, po 10 mg/kg, Table 7
Experimental: The drug concentration ratio of plasma and brain tissue in the pharmacokinetic experiment on rats was used to evaluate the entry of compounds into brain. All rats fasted overnight before administration; the test compounds were dissolved and administered orally (po) to male SD rats, with 3 rats in each group. After administration of the test compounds, blood was collected by jugular vein puncture at 0.5 hours with about 0.25 mL per sample. The whole brain was taken at the same time. The plasma and brain tissue drug concentration were determined by LC-MS/MS method, and the pharmacokinetic parameters were calculated by Phoenix WinNonlin7.0. The dosage was 10 mg/kg, and the vehicle was 5% CMC-Na aqueous solution.

[6] = Thermodynamic solubility in simulated intestinal fluid (TS in FaSSIF); assay type: physicochemical; settings: thermodynamic from solid, 37° C.
Experimental: Simulated intestinal fluid FaSSIF: 54.76 mg of FaSSIF-V2 (Biorelevant, batch. V2FAS-0619-A, lot. V2FAS01) was weighed and added to 15 mL of a buffer solution. After dissolving, the solution was supplemented to 30 mL, and put at room temperature for 1 hour before use.
as §1, §2
Thermodynamic solubility in intestinal fluid (TS in FaSSIF) was simulated. About 0.3 mg of each sample was weighed and added to 1.5 mL of FaSSIF solution, with two parts in parallel, shaken at 1000 rpm at 37° C. for 4 hours, filtered. 1 mL of an initial filtrate was discarded, and 400 μL of the subsequent filtrate was taken. The filtrate was detected by high performance liquid chromatograph (UV).

[7] = Table 5, compounds of the disclosure and comparative compounds
[8] = Table 4, 0.5 mg protein/mL, NADPH, 37° C., 0-45 min

Structure (SMILES) | inhibition at 0.1 µM (α5-GABAA receptor [4]) | solubility thermodynamic at 4 h [6] | also measured
CCNC(=O)c1ccc(COc2nn3c(-c4cc(C)on4)nnc3c3ccccc23)nc1 [drawing 926, reference compound] |  |  | RLM [1, 7]: 26 µL/min/mg
CCNC(=O)c1ccc(COc2nn3c(-c4cc(C)on4)nnc3c3ccccc23)nc1 [drawing 920] |  |  | solubility thermodynamic at 24 h [2]: 0.8 µg/mL (≈ 1.86 µM)
Cc1cc(-c2nnc3c4ccccc4c(OCc4ccccn4)nn23)no1 [drawing 917] |  |  | solubility thermodynamic at 24 h [2]: 0.3 µg/mL (≈ 0.837 µM)
CCNC(=O)c1ccc(COc2nn3c(-c4cc(C)on4)nnc3cc2OC)nc1 [drawing 919] |  |  | solubility thermodynamic at 24 h [2]: 14.2 µg/mL (≈ 34.7 µM)
Cc1cc(-c2nnc3c4ccccc4c(OCc4ccccn4)nn23)no1 [drawing 923, reference compound] |  |  | RLM [1, 7]: 28.2 µL/min/mg
CCOC(=O)c1ncn2c1[C@@H]1CCCN1C(=O)c1cc(OC)ccc1-2 [L-655,708] |  |  | suppression of the current (α5-GABAA receptor [3]; GABA 1 μM, highest concentration of L-655,708): 15%; inhibition of the current induced by low concentrations of GABA (α5-GABAA receptor [3]; GABA 5, 50 and 500 nM): dose-dependently inhibited; inhibitory effect on the current induced by GABA (α5-GABAA receptor [3]; GABA concentration increased above 1 μM): no inhibitory effect
COc1cc2nnc(-c3cc(C)on3)n2nc1OCc1ccccn1 [drawing 916] |  |  | solubility thermodynamic at 24 h [2]: 20.1 µg/mL (≈ 59.4 µM)
Cc1cc(-c2nnc3cc(C(C)(C)C)c(OCc4ccccn4)nn23)no1 [drawing 918] |  |  | solubility thermodynamic at 24 h [2]: 2.6 µg/mL (≈ 7.13 µM)
COc1cc2nnc(-c3cc(C)on3)n2nc1OCc1ccc2c(n1)CCN(C1CCOC1)C2 (stereo not shown) [Embodiment 183] | 55.8% |  | RLM [1, 8]: 5 µL/min/mg; Kp at 0.5 h [5]: 0.0183
COc1cc2nnc(-c3cc(C)on3)n2nc1OCc1ccccn1 [drawing 922] |  |  | RLM [1, 7]: 0.3 µL/min/mg
CCNC(=O)c1ccc(COc2nn3c(-c4cc(C)on4)nnc3cc2OC)nc1 [drawing 925] |  |  | RLM [1, 7]: 11.4 µL/min/mg
COc1cc2nnc(-c3cc(C)on3)n2nc1OCc1ccc2nc(C#N)cn2n1 [Embodiment 211, 6-(((7-Methoxy-3-(5-methylisoxazol-3-yl)-[1,2,4]triazolo[4,3-b]pyridazin-6-yl)oxy)methyl)imidazo[1,2-b]pyridazine-2-carbonitrile] | 64.7% |  | RLM [1, 8]: 5 µL/min/mg; Kp at 0.5 h [5]: 0.018
COc1cc2nnc(-c3cc(C)on3)n2nc1OCc1ccc2c(n1)CCN(C1(CC#N)COC1)C2 [Embodiment 114, 2-(3-(2-(((7-Methoxy-3-(5-methylisoxazol-3-yl)-[1,2,4]triazolo[4,3-b]pyridazin-6-yl)oxy)methyl)-7,8-dihydro-1,6-naphthyridin-6(5H)-yl)oxetan-3-yl)acetonitrile] | 36% | 139 µg/mL (≈ 284 µM) | 
COCCCN1CCc2nc(COc3nn4c(-c5cc(C)on5)nnc4cc3OC)ccc2C1=O [Embodiment 107] | 39.3% | 212 µg/mL (≈ 443 µM) | 
CCS(=O)(=O)N1CCc2nc(COc3nn4c(-c5cc(C)on5)nnc4cc3OC)ccc2C1 [Embodiment 210] | 43.4% | 47 µg/mL (≈ 96.8 µM) | 
CCNC(=O)c1ccc(COc2nn3c(-c4cc(C)on4)nnc3cc2C(C)(C)C)nc1 [drawing 927, reference compound] |  |  | RLM [1, 7]: 142.6 µL/min/mg
COc1cc2nnc(-c3cc(C)on3)n2nc1OCc1ccncn1 [Embodiment 31] | 34.1% | 43.8 µg/mL (≈ 129 µM) | 
COc1cc2nnc(-c3cc(C)on3)n2nc1OCc1cccnn1 [Embodiment 39] | 36.5% | 180 µg/mL (≈ 531 µM) | 
COc1cc2nnc(-c3cc(C)on3)n2nc1OCc1ccc2c(n1)CCN(CCS(C)(=O)=O)C2 [Embodiment 113, 3-(7-Methoxy-6-((6-(2-(methylsulfonyl)ethyl)-5,6,7,8-tetrahydro-1,6-naphthalen-2-yl)methoxy)-[1,2,4]triazolo[4,3-b]pyridazin-3-yl)-5-methylisoxazole] | 36.7% | 191 µg/mL (≈ 383 µM) | 
Cc1cc(-c2nnc3cc(C(C)(C)C)c(OCc4ccccn4)nn23)no1 [drawing 924, reference compound] |  |  | RLM [1, 7]: 33.6 µL/min/mg
COCCCOc1ccc(COc2nn3c(-c4cc(C)on4)nnc3cc2OC)nc1 [Embodiment 9] | 40.6% | 60.3 µg/mL (≈ 141 µM) | 
COc1cc2nnc(-c3cc(C)on3)n2nc1OCc1ccccn1 [Embodiment 33, 3-(7-Methoxy-6-(pyridinyl-2-methoxy)-[1,2,4]-triazolo[4,3-b]pyridazin-3-yl)-5-methylisoxazole] | 40.4% | 32.3 µg/mL (≈ 95.5 µM) | 
COc1cc2nnc(-c3cc(C)on3)n2nc1OCc1ccc2c(n1)CCN(CC1(C)COC1)C2 [Embodiment 200] | 37.4% | 228 µg/mL (≈ 479 µM) | 
CCNC(=O)c1ccc(COc2nn3c(-c4cc(C)on4)nnc3cc2C(C)(C)C)nc1 [drawing 921] |  |  | solubility thermodynamic at 24 h [2]: 2.5 µg/mL (≈ 5.74 µM)
COc1cc2nnc(-c3cc(C)on3)n2nc1OCc1ccc2c(n1)CCN(CCC#N)C2 [Embodiment 90] | 64.9% | 84.9 µg/mL (≈ 190 µM) | 
COCCn1ccc2nc(COc3nn4c(-c5noc(C)n5)nnc4cc3OC)ccc2c1=O [Embodiment 130] | 39.9% | 30.9 µg/mL (≈ 66.5 µM) | 
